{
  "source": "patent US20070191291A1",
  "about": "“Compound antibacterial drugs comprising n-acetyl-d-glucosamine” (priority 2003, published 2007)",
  "tested_on": "E. coli",
  "experiment": "Test Example 1: inducing E. coli CGC with N-acetyl-D-glucosamine and antibiotics in different ratios (K-B method, microscopy)",
  "type": "cell-based",
  "data": [
    {"smiles": "CC(=O)N[C@@H]1[C@@H](O)[C@H](O)[C@@H](CO)O[C@H]1O", "note": "[Compound (I), N-acetyl-D-glucosamine]", "values": [
      {"measurement": "CGC formation", "setting": "Compound (I) 150 mg, macrolide (spiramycin) 500 mg", "value": "− (if cell length was not greater than 50 μm and cell number was within the range from 0 to 4 in each visual field, it was deemed as CGC negative and was marked with “−”)"},
      {"measurement": "CGC formation", "setting": "Compound (I) 150 mg, macrolide (spiramycin) 700 mg", "value": "− (if cell length was not greater than 50 μm and cell number was within the range from 0 to 4 in each visual field, it was deemed as CGC negative and was marked with “−”)"},
      {"measurement": "CGC formation", "setting": "Compound (I) 150 mg, macrolide (spiramycin) 900 mg", "value": "− (if cell length was not greater than 50 μm and cell number was within the range from 0 to 4 in each visual field, it was deemed as CGC negative and was marked with “−”)"},
      {"measurement": "CGC formation", "setting": "Compound (I) 150 mg, macrolide (spiramycin) 1100 mg", "value": "+ (If cell length was more than 50 μm and cell number was more than 5 in each visual field, it was deemed as CGC positive and was marked with “+”)"},
      {"measurement": "CGC formation", "setting": "Compound (I) 150 mg, macrolide (spiramycin) 1300 mg", "value": "+ (If cell length was more than 50 μm and cell number was more than 5 in each visual field, it was deemed as CGC positive and was marked with “+”)"},
      {"measurement": "CGC formation", "setting": "Compound (I) 150 mg, macrolide (spiramycin) 1500 mg", "value": "+ (If cell length was more than 50 μm and cell number was more than 5 in each visual field, it was deemed as CGC positive and was marked with “+”)"},
      {"measurement": "CGC formation", "setting": "Compound (I) 150 mg, quinoline (ciprofloxacin, norfloxacin) 150 mg", "value": "− (if cell length was not greater than 50 μm and cell number was within the range from 0 to 4 in each visual field, it was deemed as CGC negative and was marked with “−”)"},
      {"measurement": "CGC formation", "setting": "Compound (I) 150 mg, quinoline (ciprofloxacin, norfloxacin) 200 mg", "value": "− (if cell length was not greater than 50 μm and cell number was within the range from 0 to 4 in each visual field, it was deemed as CGC negative and was marked with “−”)"},
      {"measurement": "CGC formation", "setting": "Compound (I) 200 mg, aminoglycoside (kanamycin, gentamycin) 50 mg", "value": "− (if cell length was not greater than 50 μm and cell number was within the range from 0 to 4 in each visual field, it was deemed as CGC negative and was marked with “−”)"},
      {"measurement": "CGC formation", "setting": "Compound (I) 200 mg, aminoglycoside (kanamycin, gentamycin) 100 mg", "value": "− (if cell length was not greater than 50 μm and cell number was within the range from 0 to 4 in each visual field, it was deemed as CGC negative and was marked with “−”)"},
      {"measurement": "CGC formation", "setting": "Compound (I) 200 mg, aminoglycoside (kanamycin, gentamycin) 150 mg", "value": "− (if cell length was not greater than 50 μm and cell number was within the range from 0 to 4 in each visual field, it was deemed as CGC negative and was marked with “−”)"},
      {"measurement": "CGC formation", "setting": "Compound (I) 200 mg, aminoglycoside (kanamycin, gentamycin) 200 mg", "value": "− (if cell length was not greater than 50 μm and cell number was within the range from 0 to 4 in each visual field, it was deemed as CGC negative and was marked with “−”)"},
      {"measurement": "CGC formation", "setting": "Compound (I) 200 mg, aminoglycoside (kanamycin, gentamycin) 300 mg", "value": "− (if cell length was not greater than 50 μm and cell number was within the range from 0 to 4 in each visual field, it was deemed as CGC negative and was marked with “−”)"},
      {"measurement": "CGC formation", "setting": "Compound (I) 200 mg, aminoglycoside (kanamycin, gentamycin) 400 mg", "value": "+ (If cell length was more than 50 μm and cell number was more than 5 in each visual field, it was deemed as CGC positive and was marked with “+”)"},
      {"measurement": "CGC formation", "setting": "Compound (I) 200 mg, aminoglycoside (kanamycin, gentamycin) 500 mg", "value": "+ (If cell length was more than 50 μm and cell number was more than 5 in each visual field, it was deemed as CGC positive and was marked with “+”)"},
      {"measurement": "CGC formation", "setting": "Compound (I) 200 mg, macrolide (spiramycin) 300 mg", "value": "− (if cell length was not greater than 50 μm and cell number was within the range from 0 to 4 in each visual field, it was deemed as CGC negative and was marked with “−”)"},
      {"measurement": "CGC formation", "setting": "Compound (I) 200 mg, macrolide (spiramycin) 500 mg", "value": "− (if cell length was not greater than 50 μm and cell number was within the range from 0 to 4 in each visual field, it was deemed as CGC negative and was marked with “−”)"},
      {"measurement": "CGC formation", "setting": "Compound (I) 200 mg, macrolide (spiramycin) 700 mg", "value": "− (if cell length was not greater than 50 μm and cell number was within the range from 0 to 4 in each visual field, it was deemed as CGC negative and was marked with “−”)"},
      {"measurement": "CGC formation", "setting": "Compound (I) 200 mg, macrolide (spiramycin) 900 mg", "value": "− (if cell length was not greater than 50 μm and cell number was within the range from 0 to 4 in each visual field, it was deemed as CGC negative and was marked with “−”)"},
      {"measurement": "CGC formation", "setting": "Compound (I) 200 mg, macrolide (spiramycin) 1100 mg", "value": "− (if cell length was not greater than 50 μm and cell number was within the range from 0 to 4 in each visual field, it was deemed as CGC negative and was marked with “−”)"},
      {"measurement": "CGC formation", "setting": "Compound (I) 200 mg, macrolide (spiramycin) 1300 mg", "value": "+ (If cell length was more than 50 μm and cell number was more than 5 in each visual field, it was deemed as CGC positive and was marked with “+”)"},
      {"measurement": "CGC formation", "setting": "Compound (I) 200 mg, macrolide (spiramycin) 1500 mg", "value": "+ (If cell length was more than 50 μm and cell number was more than 5 in each visual field, it was deemed as CGC positive and was marked with “+”)"},
      {"measurement": "CGC formation", "setting": "Compound (I) 250 mg, aminoglycoside (kanamycin, gentamycin) 50 mg", "value": "− (if cell length was not greater than 50 μm and cell number was within the range from 0 to 4 in each visual field, it was deemed as CGC negative and was marked with “−”)"},
      {"measurement": "CGC formation", "setting": "Compound (I) 250 mg, aminoglycoside (kanamycin, gentamycin) 100 mg", "value": "− (if cell length was not greater than 50 μm and cell number was within the range from 0 to 4 in each visual field, it was deemed as CGC negative and was marked with “−”)"},
      {"measurement": "CGC formation", "setting": "Compound (I) 250 mg, aminoglycoside (kanamycin, gentamycin) 150 mg", "value": "− (if cell length was not greater than 50 μm and cell number was within the range from 0 to 4 in each visual field, it was deemed as CGC negative and was marked with “−”)"},
      {"measurement": "CGC formation", "setting": "Compound (I) 250 mg, aminoglycoside (kanamycin, gentamycin) 200 mg", "value": "− (if cell length was not greater than 50 μm and cell number was within the range from 0 to 4 in each visual field, it was deemed as CGC negative and was marked with “−”)"},
      {"measurement": "CGC formation", "setting": "Compound (I) 250 mg, aminoglycoside (kanamycin, gentamycin) 300 mg", "value": "− (if cell length was not greater than 50 μm and cell number was within the range from 0 to 4 in each visual field, it was deemed as CGC negative and was marked with “−”)"},
      {"measurement": "CGC formation", "setting": "Compound (I) 250 mg, aminoglycoside (kanamycin, gentamycin) 400 mg", "value": "− (if cell length was not greater than 50 μm and cell number was within the range from 0 to 4 in each visual field, it was deemed as CGC negative and was marked with “−”)"},
      {"measurement": "CGC formation", "setting": "Compound (I) 250 mg, aminoglycoside (kanamycin, gentamycin) 500 mg", "value": "+ (If cell length was more than 50 μm and cell number was more than 5 in each visual field, it was deemed as CGC positive and was marked with “+”)"},
      {"measurement": "CGC formation", "setting": "Compound (I) 250 mg, macrolide (spiramycin) 300 mg", "value": "− (if cell length was not greater than 50 μm and cell number was within the range from 0 to 4 in each visual field, it was deemed as CGC negative and was marked with “−”)"},
      {"measurement": "CGC formation", "setting": "Compound (I) 250 mg, macrolide (spiramycin) 500 mg", "value": "− (if cell length was not greater than 50 μm and cell number was within the range from 0 to 4 in each visual field, it was deemed as CGC negative and was marked with “−”)"},
      {"measurement": "CGC formation", "setting": "Compound (I) 250 mg, macrolide (spiramycin) 700 mg", "value": "− (if cell length was not greater than 50 μm and cell number was within the range from 0 to 4 in each visual field, it was deemed as CGC negative and was marked with “−”)"},
      {"measurement": "CGC formation", "setting": "Compound (I) 250 mg, macrolide (spiramycin) 900 mg", "value": "− (if cell length was not greater than 50 μm and cell number was within the range from 0 to 4 in each visual field, it was deemed as CGC negative and was marked with “−”)"},
      {"measurement": "CGC formation", "setting": "Compound (I) 250 mg, macrolide (spiramycin) 1100 mg", "value": "− (if cell length was not greater than 50 μm and cell number was within the range from 0 to 4 in each visual field, it was deemed as CGC negative and was marked with “−”)"},
      {"measurement": "CGC formation", "setting": "Compound (I) 250 mg, macrolide (spiramycin) 1300 mg", "value": "− (if cell length was not greater than 50 μm and cell number was within the range from 0 to 4 in each visual field, it was deemed as CGC negative and was marked with “−”)"},
      {"measurement": "CGC formation", "setting": "Compound (I) 250 mg, macrolide (spiramycin) 1500 mg", "value": "+ (If cell length was more than 50 μm and cell number was more than 5 in each visual field, it was deemed as CGC positive and was marked with “+”)"},
      {"measurement": "CGC formation", "setting": "Compound (I) 300 mg, aminoglycoside (kanamycin, gentamycin) 50 mg", "value": "− (if cell length was not greater than 50 μm and cell number was within the range from 0 to 4 in each visual field, it was deemed as CGC negative and was marked with “−”)"},
      {"measurement": "CGC formation", "setting": "Compound (I) 300 mg, aminoglycoside (kanamycin, gentamycin) 100 mg", "value": "− (if cell length was not greater than 50 μm and cell number was within the range from 0 to 4 in each visual field, it was deemed as CGC negative and was marked with “−”)"},
      {"measurement": "CGC formation", "setting": "Compound (I) 300 mg, aminoglycoside (kanamycin, gentamycin) 150 mg", "value": "− (if cell length was not greater than 50 μm and cell number was within the range from 0 to 4 in each visual field, it was deemed as CGC negative and was marked with “−”)"},
      {"measurement": "CGC formation", "setting": "Compound (I) 300 mg, aminoglycoside (kanamycin, gentamycin) 200 mg", "value": "− (if cell length was not greater than 50 μm and cell number was within the range from 0 to 4 in each visual field, it was deemed as CGC negative and was marked with “−”)"},
      {"measurement": "CGC formation", "setting": "Compound (I) 300 mg, aminoglycoside (kanamycin, gentamycin) 300 mg", "value": "− (if cell length was not greater than 50 μm and cell number was within the range from 0 to 4 in each visual field, it was deemed as CGC negative and was marked with “−”)"},
      {"measurement": "CGC formation", "setting": "Compound (I) 300 mg, aminoglycoside (kanamycin, gentamycin) 400 mg", "value": "− (if cell length was not greater than 50 μm and cell number was within the range from 0 to 4 in each visual field, it was deemed as CGC negative and was marked with “−”)"},
      {"measurement": "CGC formation", "setting": "Compound (I) 300 mg, aminoglycoside (kanamycin, gentamycin) 500 mg", "value": "− (if cell length was not greater than 50 μm and cell number was within the range from 0 to 4 in each visual field, it was deemed as CGC negative and was marked with “−”)"},
      {"measurement": "CGC formation", "setting": "Compound (I) 300 mg, macrolide (spiramycin) 300 mg", "value": "− (if cell length was not greater than 50 μm and cell number was within the range from 0 to 4 in each visual field, it was deemed as CGC negative and was marked with “−”)"},
      {"measurement": "CGC formation", "setting": "Compound (I) 300 mg, macrolide (spiramycin) 500 mg", "value": "− (if cell length was not greater than 50 μm and cell number was within the range from 0 to 4 in each visual field, it was deemed as CGC negative and was marked with “−”)"},
      {"measurement": "CGC formation", "setting": "Compound (I) 300 mg, macrolide (spiramycin) 700 mg", "value": "− (if cell length was not greater than 50 μm and cell number was within the range from 0 to 4 in each visual field, it was deemed as CGC negative and was marked with “−”)"},
      {"measurement": "CGC formation", "setting": "Compound (I) 300 mg, macrolide (spiramycin) 900 mg", "value": "− (if cell length was not greater than 50 μm and cell number was within the range from 0 to 4 in each visual field, it was deemed as CGC negative and was marked with “−”)"},
      {"measurement": "CGC formation", "setting": "Compound (I) 300 mg, macrolide (spiramycin) 1100 mg", "value": "− (if cell length was not greater than 50 μm and cell number was within the range from 0 to 4 in each visual field, it was deemed as CGC negative and was marked with “−”)"},
      {"measurement": "CGC formation", "setting": "Compound (I) 300 mg, macrolide (spiramycin) 1300 mg", "value": "− (if cell length was not greater than 50 μm and cell number was within the range from 0 to 4 in each visual field, it was deemed as CGC negative and was marked with “−”)"},
      {"measurement": "CGC formation", "setting": "Compound (I) 300 mg, macrolide (spiramycin) 1500 mg", "value": "− (if cell length was not greater than 50 μm and cell number was within the range from 0 to 4 in each visual field, it was deemed as CGC negative and was marked with “−”)"}
    ]}
  ]
}
